Measurements taken from PubChem BioAssay (NCI).
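The compound was tested at five concentrations on cells cultured in 96-well plates, with a 48-hour exposure period. TGI denotes the concentration required for complete inhibition of growth.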

What was measured:
Experiment in all cases: DTP human tumour cell line panel, 48 h
T-47D breast = tested on: T-47D breast
M14 melanoma = tested on: M14 melanoma
RXF 393 renal = tested on: RXF 393 renal
SK-MEL-2 melanoma = tested on: SK-MEL-2 melanoma
SF-268 CNS = tested on: SF-268 CNS
OVCAR-5 ovarian = tested on: OVCAR-5 ovarian
CAKI-1 renal = tested on: CAKI-1 renal
SF-539 CNS = tested on: SF-539 CNS
MDA-MB-231 breast = tested on: MDA-MB-231 breast
SR leukemia = tested on: SR leukemia
HT29 colon = tested on: HT29 colon
HOP-92 NSCLC = tested on: HOP-92 NSCLC

Measured: TGI

CNC1Cc2c[nH]c3cccc(c23)C12C=C(C)C(=O)O2 (configuration not stated)
> 100 µM: all assays above
